Source: ChEMBL document CHEMBL5726904, “Compounds, compositions, and methods” (2018)

Target: Leucine-rich repeat serine/threonine-protein kinase 2 (Homo sapiens, UniProt Q5S007, G2019S)
Assay: Biochemical Assay: Materials: LRRK2 G2019S enzyme Substrate (LRRKtide) ATP TR-FRET dilution buffer pLRRKtide antibody 384-well assay plate DMSOEnzyme Reaction Conditions 50 mM Tris pH 7.5, 10 mM MgCl2, 1 mM EGTA, 0.01% Brij-35, 2 mM DTT 5 nM LRRK2 134 μM ATP 60 minute reaction time 23° C. reaction temperature 10 μL total reaction volumeDetection Reaction Conditions 1× TR-FRET dilution buffer 10 mM EDTA 2 nM antibody 23° C. reaction temperature 10 μL total reaction volumeCompounds were prepared by initially diluting to 1 mM with DMSO. 35 μL of reference compound solution, 35 μL of test compound solution, and 35 μL HPE were successively added to the source plate (384-well assay plate, Labcyte). The plates were centrifuged at 2500 rpm for 1 minute and sealed in foil. POD was used to perform a 3.162 fold serial dilution and 100 nL of reference compound solution, test compound solution, HPE and ZPE were transferred to assay plates. The assay plate was centrifuged at 2500 rpm for 1 minute, and sealed with foil.To perform the enzyme reaction, 5 μL of LRRKtide substrate and kinase mixture in assay buffer was added to all wells of the assay plate. The plate was centrifuged to concentrate the mixture at the bottom of the wells. The assay plate was incubated at 23° C. for 20 minutes. […]

Leucine-rich repeat serine/threonine-protein kinase 2, sequence (Q5S007 whole entry G2019S): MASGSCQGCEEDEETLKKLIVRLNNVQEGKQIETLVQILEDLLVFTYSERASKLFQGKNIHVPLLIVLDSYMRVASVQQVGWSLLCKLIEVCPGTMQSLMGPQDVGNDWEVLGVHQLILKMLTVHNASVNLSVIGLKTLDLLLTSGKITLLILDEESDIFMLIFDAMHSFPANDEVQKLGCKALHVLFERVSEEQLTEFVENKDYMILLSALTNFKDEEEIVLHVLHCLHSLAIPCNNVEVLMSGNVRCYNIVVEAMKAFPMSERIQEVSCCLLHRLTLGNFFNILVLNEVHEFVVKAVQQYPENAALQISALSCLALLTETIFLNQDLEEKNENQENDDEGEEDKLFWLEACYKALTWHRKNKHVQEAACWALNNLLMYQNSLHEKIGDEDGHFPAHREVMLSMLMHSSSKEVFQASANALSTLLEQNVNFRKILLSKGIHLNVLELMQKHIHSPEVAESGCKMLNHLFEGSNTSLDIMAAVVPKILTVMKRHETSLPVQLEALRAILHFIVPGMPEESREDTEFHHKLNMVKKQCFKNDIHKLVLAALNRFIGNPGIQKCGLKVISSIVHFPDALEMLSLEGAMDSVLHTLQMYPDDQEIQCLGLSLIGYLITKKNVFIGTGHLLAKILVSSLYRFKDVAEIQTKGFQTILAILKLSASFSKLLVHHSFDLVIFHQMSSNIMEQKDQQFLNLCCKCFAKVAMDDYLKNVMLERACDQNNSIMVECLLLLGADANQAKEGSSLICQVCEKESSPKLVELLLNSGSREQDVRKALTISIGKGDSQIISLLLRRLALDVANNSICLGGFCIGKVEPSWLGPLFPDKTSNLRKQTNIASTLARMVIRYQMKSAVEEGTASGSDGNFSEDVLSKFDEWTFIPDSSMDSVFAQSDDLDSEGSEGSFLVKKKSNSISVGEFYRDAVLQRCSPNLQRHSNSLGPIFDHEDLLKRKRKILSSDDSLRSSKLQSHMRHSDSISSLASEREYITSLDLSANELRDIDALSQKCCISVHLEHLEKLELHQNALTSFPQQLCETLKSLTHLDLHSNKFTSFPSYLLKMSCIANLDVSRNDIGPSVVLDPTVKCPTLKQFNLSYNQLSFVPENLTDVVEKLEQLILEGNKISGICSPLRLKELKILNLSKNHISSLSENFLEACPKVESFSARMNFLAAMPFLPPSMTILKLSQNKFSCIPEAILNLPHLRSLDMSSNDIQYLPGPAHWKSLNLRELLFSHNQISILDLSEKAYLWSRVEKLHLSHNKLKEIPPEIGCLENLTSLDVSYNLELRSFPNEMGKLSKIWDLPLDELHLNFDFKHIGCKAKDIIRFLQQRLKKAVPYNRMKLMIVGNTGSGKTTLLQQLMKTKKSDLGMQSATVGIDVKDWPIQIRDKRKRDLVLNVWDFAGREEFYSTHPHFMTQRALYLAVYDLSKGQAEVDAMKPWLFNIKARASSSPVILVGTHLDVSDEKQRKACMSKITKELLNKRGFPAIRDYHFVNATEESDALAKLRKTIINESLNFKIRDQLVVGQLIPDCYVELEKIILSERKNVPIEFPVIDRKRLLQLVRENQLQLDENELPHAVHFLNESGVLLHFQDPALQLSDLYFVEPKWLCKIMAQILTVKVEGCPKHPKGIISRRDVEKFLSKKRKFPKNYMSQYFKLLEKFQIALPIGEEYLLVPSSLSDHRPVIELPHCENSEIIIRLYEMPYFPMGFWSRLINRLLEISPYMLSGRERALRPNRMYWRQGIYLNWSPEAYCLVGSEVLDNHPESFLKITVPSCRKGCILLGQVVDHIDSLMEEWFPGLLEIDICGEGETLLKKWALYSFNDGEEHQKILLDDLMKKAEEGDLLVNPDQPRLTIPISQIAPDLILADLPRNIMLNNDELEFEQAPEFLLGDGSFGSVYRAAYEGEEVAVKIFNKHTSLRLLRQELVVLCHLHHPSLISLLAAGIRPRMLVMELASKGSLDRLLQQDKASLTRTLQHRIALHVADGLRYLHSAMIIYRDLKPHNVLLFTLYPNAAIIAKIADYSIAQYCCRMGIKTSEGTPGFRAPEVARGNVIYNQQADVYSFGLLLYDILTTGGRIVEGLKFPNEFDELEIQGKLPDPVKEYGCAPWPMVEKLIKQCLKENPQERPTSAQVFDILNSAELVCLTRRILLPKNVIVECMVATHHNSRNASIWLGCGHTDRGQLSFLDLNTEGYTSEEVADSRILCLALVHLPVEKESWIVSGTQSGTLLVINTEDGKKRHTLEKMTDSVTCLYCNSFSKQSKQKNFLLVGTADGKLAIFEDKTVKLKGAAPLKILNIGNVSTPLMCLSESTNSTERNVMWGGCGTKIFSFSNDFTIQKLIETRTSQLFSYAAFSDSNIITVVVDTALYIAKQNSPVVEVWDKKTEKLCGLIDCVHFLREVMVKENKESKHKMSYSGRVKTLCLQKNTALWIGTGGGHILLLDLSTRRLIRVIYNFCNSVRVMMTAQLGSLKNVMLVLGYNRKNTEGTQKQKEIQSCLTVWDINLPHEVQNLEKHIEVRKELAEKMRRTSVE

COc1nc(Nc2cn(C(C)(C)C#N)nc2C)ncc1Br was tested. Which IC50 did it give?
Its IC50 is < 30 nM.

With COc1nc(Nc2cn(C3C[C@@H]3C#N)nc2C2CC2)ncc1Br (single isomer, unassigned) as the compound, how does the IC50 read?
Its IC50 is < 30 nM.
